Our source for the melting point values is a melting point compilation (Tetko et al.; mined from patent text by program, amines drawn as free bases though some values may be those of a salt).

`CCC(=O)N1CCC(NC(=O)Nc2ccc(Cl)cc2)CC1` returned a melting point of 225 to 226 °C.

In the case of `CCc1nsc(C(=O)O)c1C(=O)OC`, the melting point is 43 to 45 °C.

Regarding `CCS(=O)(=O)Oc1ccc(C(C)(C)C)cc1C(C)(C)C`, the melting point was 76 °C.

`Cc1csc(-c2ccc(C3=NNC(=O)CC3)cc2)n1`: the melting point is 266 to 267 °C.

For the molecule `CCCn1c(CCOC)nc2c(N)nc3cc(OC4CCN(C(=O)OC(C)(C)C)CC4)ccc3c21`, the melting point was 173 to 175 °C.

Molecule `O=C(O)CN1C(=O)C(Cl)=C(Cl)C1=O` returned a melting point of 191 to 192 °C.

Turning to `COC(=O)CCC(=O)c1cc(OC)ccc1OCC1CO1` (stereo unspecified), the melting point lay in the range of 50 to 51.5 °C.

Molecule `Cc1ccc(-c2nc3sc4ccccc4n3c2CC(=O)O)s1` came in with a melting point of 255 to 259 °C.

`COc1cc(OCc2ccccn2)ccc1/C=C/c1cc(/C=C/c2cc3ccccc3o2)n[nH]1` had a melting point of 199 to 201 °C.

The molecule `CC(C)(C)OC(=O)N1[C@@H](Cc2ccc(O[Si](C)(C)C(C)(C)C)c(C(C)(C)C)c2)C(=O)O[C@H](c2ccccc2)[C@@H]1c1ccccc1` showed a melting point of 75 to 83 °C.

For the molecule `O=C(NCCSCc1cccc(NC(=O)C2CC2)c1)c1c(Cl)cccc1Cl`, the melting point lay within 46 to 47 °C.

Turning to `O=C(O)COCCc1ccccc1`, the melting point is 46 to 48 °C.

Consider `N#Cc1cccc(-n2cc(-c3ccccn3)cn2)n1`, for which the melting point was in the range of 260 to 261 °C.

`CC(C)(C)OC(=O)N[C@@H]1C(=O)N(OCC(=O)OCc2ccc([N+](=O)[O-])cc2)[C@@H]1COC(N)=O` gave a melting point of 189 to 191 °C.

`COC(=O)c1ccc(NC(=O)c2sc3ccc(OC)cc3c2OC(C)C)cc1O` registered a melting point of 158 to 160 °C.

For `CC(C)(C(=O)O)c1ccc(CCl)cc1`, the melting point lay in the range of 121 to 122 °C.

As for `Cc1ccc(S(=O)(=O)N2CCNC2=Nc2ccccc2)cc1`, the melting point was 174 to 177 °C.

On to `Clc1cccc(Nc2ncnc3[nH]c(CN4CCOCC4)cc23)c1`, for which the melting point is 244 to 246 °C.

In the case of `O=C1CNc2ncc(I)cc2N1Cc1c(Cl)cccc1Cl`, the melting point was more than 200 °C.

The molecule `C[C@@H]1CCC[C@H](C)N1CCCNC(=O)CN1C(=O)CCC1(C)C` had a melting point of 86 to 87 °C.

In turn, `CN(C)CCCCNC(=O)c1ccc(-c2nnc(CSCCOc3ccccc3)o2)cc1` returned a melting point of 71 to 78 °C.

`COc1cc(-c2ccccc2F)nc(-c2cccc(C)n2)n1` had a melting point of 99.5 °C.

Regarding `CCOC(=O)Cc1cc(C)c(C(=O)c2ccc(Cl)cc2Cl)n1C`, the melting point lay in the range of 90 to 92 °C.

In turn, `CC(C)C(=O)NCCNC(=O)OC(C)(C)C` registered a melting point of 116 to 117 °C.

Turning to `OC1CCCCCC1n1cncn1` (stereo unspecified), the melting point lay within 85 to 86 °C.

`C=CCn1c2ccc(OC)cc2c2c3c(c(-c4ccccc4Cl)cc21)C(=O)N(Cc1ccc(OC)cc1OC)C3=O` registered a melting point of 171 to 173 °C.

As for `CCOC(=O)c1cc(N)nc(SCc2ccc3ccccc3c2)n1`, the melting point was 188 to 189 °C.

For the molecule `C[C@@H](O)[C@H](CN)C(=O)O`, the melting point lay within 120 to 123 °C.

In turn, `CC(=O)Nc1cccc(C(=O)Nc2cccc3cc(Br)cnc23)c1` yielded a melting point of 198 to 202 °C.

On to `CSc1nc(=O)n(C(C)(C)C)c(=O)[nH]1`, for which the melting point lay in the range of 112 to 115 °C.

On to `O=C(NCCSC(c1ccccc1)(c1ccccc1)c1ccccc1)c1cc2cccc(OCc3ccccc3)c2[nH]1`, for which the melting point fell in the range of 156 to 157 °C.

As for `COc1cc(OC)nc(NC(=O)NS(=O)(=O)c2c(C(=O)C3CC3)cnn2C)n1`, the melting point lay within 189 to 192 °C.

`CC(Oc1ccc2nc(N)sc2c1)c1cc(F)cc(F)c1` (stereo unspecified) gave a melting point of 132 °C.

Take `CCNc1ncn(-c2ccccc2C)c(=O)n1`: the melting point fell in the range of 208 to 210 °C.

Turning to `CNC(=O)c1ccc(N2CCN(Cc3cc4c(c(OC)c3)OC(C)C(=O)N4)CC2)c(F)c1` (stereo unspecified), the melting point was 241 to 244 °C.

Turning to `COc1ccc2c(C)n[nH]c(=O)c2c1`, the melting point lay within 203 to 205 °C.
